In patent publication US12065654B2, “Plants having increased tolerance to herbicides” (BASF SE, priority 2014, dated 2024):

What was measured:
[1] = system: transgenic soybean plants AtHPPD Q293S, event SDS-9928; assay: Greenhouse testing of soybean plants; type: in vivo, Glycine max; settings: soybean AtHPPD Q293S SDS-9928, 14 days, average of 8 T1 individuals
Protocol: (§1) Transgenic plants expressing heterologous HPPD or HST enzymes are tested for tolerance against HPPD-inhibiting, preferably pyrazolone, isoxazole, or triketone derivative herbicides in greenhouse experiments.
(§2) For post emergence treatment, the test plants are first grown to a height of 3 to 15 cm, depending on the plant habit, and only then treated with the herbicides. For this purpose, the test plants are either sown directly and grown in the same containers, or they are first grown separately and transplanted into the test containers a few days prior to treatment.
(§3) For testing of T0 plants, cuttings can be used. In the case of soybean plants, an optimal shoot for cutting is about 7.5 to 10 cm tall, with at least two nodes present. Each cutting is taken from the original transformant (mother plant) and dipped into rooting hormone powder (indole-3-butyric acid, IBA). The cutting is then placed in oasis wedges inside a bio-dome. Wild type cuttings are also taken simultaneously to serve as controls. The cuttings are kept in the bio-dome for 5-7 days and then transplanted to pots and then acclimated in the growth chamber for two more days. Subsequently, the cuttings are transferred to the greenhouse, acclimated for approximately 4 days, and then subjected to spray tests as indicated.
(§4) Depending on the species, the plants are kept at 10-25° C. or 20-35° C. The test period extends over 3 weeks. During this time, the plants are tended and their response to the individual treatments is evaluated. Herbicide injury evaluations are taken at 2 and 3 weeks after treatment. Plant injury is rated on a scale of 0 to 9, 0 being no injury and 9 being complete death. Tolerance to HPPD-inhibiting, preferably pyrazolone, isoxazole, or triketone derivative herbicides can also be assessed in Arabidopsis. In this case transgenic Arabidopsis thaliana plants are assayed for improved tolerance to HPPD-inhibiting, preferably pyrazolone, isoxazole, or triketone derivative herbicides in 48-well plates. Seeds are surface sterilized by stirring for 5 min in ethanol+water (70+30 by volume), rinsing one time with ethanol+water (70+30 by volume) and two times with a sterile, deionized water. The seeds are resuspended in 0.1% agar dissolved in water (w/v). Four to five seeds per well are plated on solid nutrient medium consisting of half-strength Murashige Skoog nutrient solution, pH 5.8 (Murashige and Skoog (1962) Physiologia Plantarum 15: 473-497). Compounds are dissolved in dimethylsulfoxid (DMSO) and added to the medium prior solidification (final DMSO concentration 0.1%). Multi well plates are incubated in a growth chamber at 22° C., 75% relative humidity and 110 μmol Phot*m−2*s−1 with 14:10 h light:dark photoperiod. Seven to ten days after seeding growth inhibition is evaluated by comparison to wild type plants. Tolerance factor is calculated by dividing the plant growth IC50 value of transgenic plants containing a HPPD and/or HST sequence by that of wildtype plants.
(§5) Transgenic soy plants were sprayed with a range of doses from 6.25-100 g/ha with an HPPD-inhibiting herbicide and injury evaluations were taken two weeks after treatment. […] Compared to the untransformed wild-type, plants comprising polynucleotides encoding for Arabidopsis HPPD wild-type or mutated versions thereof were less susceptible to Inhibitor 1.

[2] = system: transgenic soybean plants AtHPPD M335Y, event SDS-9866; assay: Greenhouse testing of soybean plants; type: in vivo, Glycine max; settings: soybean AtHPPD M335Y SDS-9866, 14 days, average of 8 T1 individuals
Protocol: as §1, §2, §3, §4, §5

[3] = system: HPPD enzymes from different organisms; assay: HPPD activity assay, summary statement; type: biochemical; settings: all HPPD enzymes from different organisms of Table 12
Protocol: The activity assay for HPPD is based on the analysis of homogentisic acid by reversed phase HPLC.
The assay mixture can contain 150 mM potassium phosphate buffer pH 7.0, 50 mM L-ascorbic acid, 100 μM Catalase (Sigma-Aldrich), 1 μM FeSO4 and 0.2 units of purified HPPD enzyme in a total volume of 505 μl. 1 unit is defined as the amount of enzyme that is required to produce 1 nmol of HGA per minute at 20° C.
The reaction is allowed to proceed for 45 min at room temperature. The reaction is stopped by the addition of 50 μl of 4.5 M phosphoric acid. The sample is filtered using a […] pore size PVDF filtration device. 5 μl of the cleared sample is analyzed on an UPLC HSS T3 column (particle size 1.8 μm, dimensions 2, 1×50 mm; Waters) by isocratic elution using 90% 20 mM NaH2PO4 pH 2.2, 10% methanol (v/v).
HGA is detected electrochemically at 750 mV (mode: DC; polarity: positive) and quantified by integrating peak areas (Empower software; Waters).
Inhibitors are dissolved in DMSO (dimethylsulfoxide) to a concentration of 0.5 mM. From this stock solution serial five-fold dilutions are prepared in DMSO, which are used in the assay. The respective inhibitor solution accounts for 1% of the assay volume. Thus, final inhibitor concentrations range from 5 μM to 320 pM, respectively. […] IC50 values are calculated using non-linear regression. […]

Cc1c(C(=O)c2cnn(C)c2O)ccc(S(C)(=O)=O)c1C1=NOCC1 [Inhibitor 1, [3-(4,5-dihydroisoxazol-3-yl)-2-methyl-4-methylsulfonyl-phenyl]-(5-hydroxy-1-methyl-pyrazol-4-yl)methanone]
Injury evaluation (bleaching phenotype, scale of 1-100) ([1]; 6.25 g/ha): 2%
Injury evaluation (bleaching phenotype, scale of 1-100) ([1]; 25 g/ha): 40%
Injury evaluation (bleaching phenotype, scale of 1-100) ([1]; 100 g/ha): 79%
Injury evaluation (bleaching phenotype, scale of 1-100) ([2]; 6.25 g/ha): 0%
Injury evaluation (bleaching phenotype, scale of 1-100) ([2]; 25 g/ha): 11%
Injury evaluation (bleaching phenotype, scale of 1-100) ([2]; 100 g/ha): 31%
fold more resistant in respect to the reference SEQ ID NO:53 [3]: at least 1.7 fold
